Measured values published in article PMC10709440, “High-throughput ligand profile characterization in novel cell lines expressing seven heterologous insect olfactory receptors for the detection of volatile plant biomarkers” (Scientific Reports, 2023).
Where two headings read alike, the source gives them in different places.

How the values were obtained:
Drosophila OR71a = molecular target: T1, Drosophila OR71a (Drosophila melanogaster, UniProt Q9VUK5); test: Calcium ion fluorescence (GCaMP6) assay, OR71a stable HEK293 cell line; type: cell-based; set-up: key to DF norm AVERAGE OR71a: VOC ∆F divided by the plate's mean ∆F response to 50 µM VUAA1; conditions: for OR71a response (VUAA1-normalized) at 1 μM / OR71a response (VUAA1-normalized) at 10 μM / OR71a response (VUAA1-normalized) at 100 μM / Average response: OR71a cell line; for Average response: VUAA1-normalized response, mean of biological replicates; for activation at 1 µM / activation at 10 µM / activation at 100 µM: HEK293, read-out: OR71a response (VUAA1-normalized response)
T1 construct: expressed in transfected cells
T1 sequence (Q9VUK5 1-378): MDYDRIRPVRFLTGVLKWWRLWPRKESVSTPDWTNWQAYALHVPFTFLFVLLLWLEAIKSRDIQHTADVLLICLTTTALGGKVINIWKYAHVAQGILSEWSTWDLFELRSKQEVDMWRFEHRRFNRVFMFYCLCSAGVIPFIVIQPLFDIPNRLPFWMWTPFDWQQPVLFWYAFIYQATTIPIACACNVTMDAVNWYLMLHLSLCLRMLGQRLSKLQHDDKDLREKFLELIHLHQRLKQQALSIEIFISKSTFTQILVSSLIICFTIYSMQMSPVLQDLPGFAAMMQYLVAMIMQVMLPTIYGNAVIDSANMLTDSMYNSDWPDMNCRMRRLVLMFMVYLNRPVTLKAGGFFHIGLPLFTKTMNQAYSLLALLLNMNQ
T1 sequence (Q9VNB5 1-486 partner): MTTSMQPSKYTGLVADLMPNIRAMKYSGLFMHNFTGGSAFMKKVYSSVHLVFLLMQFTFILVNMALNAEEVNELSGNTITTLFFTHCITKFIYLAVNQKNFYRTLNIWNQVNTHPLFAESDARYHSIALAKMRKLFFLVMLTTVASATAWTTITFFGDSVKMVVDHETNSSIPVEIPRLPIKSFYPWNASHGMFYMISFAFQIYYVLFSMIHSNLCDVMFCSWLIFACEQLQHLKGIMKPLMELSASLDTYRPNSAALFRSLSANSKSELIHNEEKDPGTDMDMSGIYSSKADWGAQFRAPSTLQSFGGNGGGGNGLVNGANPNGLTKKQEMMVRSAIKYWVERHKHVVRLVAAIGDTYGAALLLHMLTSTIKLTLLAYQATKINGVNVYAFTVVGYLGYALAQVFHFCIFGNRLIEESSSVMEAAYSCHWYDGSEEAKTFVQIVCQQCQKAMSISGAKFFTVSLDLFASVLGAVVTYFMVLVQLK
How it was run: (§1)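 HEK293 lines stably expressing each Drosophila OR with GCaMP6, doxycycline-induced (1 μg/mL) 48 or 72 h. Fluorescence recorded 5 s baseline then 30 s after VOC injection at pH 7.3; ΔF=(FMAX−F0)/F0, normalized to 50 µM VUAA1 response per line, triplicate wells averaged; concentration series 0.01–100 μM.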

Drosophila OR49b = molecular target: T2, Drosophila OR49b (Drosophila melanogaster, UniProt Q9V6H2); test: cell-based; conditions: for OR49b response (VUAA1-normalized) at 1 μM / OR49b response (VUAA1-normalized) at 10 μM / OR49b response (VUAA1-normalized) at 100 μM / Average response: OR49b cell line; for Average response: mean of biological replicates
T2 construct: expressed in transfected cells
T2 sequence (Q9V6H2 1-375): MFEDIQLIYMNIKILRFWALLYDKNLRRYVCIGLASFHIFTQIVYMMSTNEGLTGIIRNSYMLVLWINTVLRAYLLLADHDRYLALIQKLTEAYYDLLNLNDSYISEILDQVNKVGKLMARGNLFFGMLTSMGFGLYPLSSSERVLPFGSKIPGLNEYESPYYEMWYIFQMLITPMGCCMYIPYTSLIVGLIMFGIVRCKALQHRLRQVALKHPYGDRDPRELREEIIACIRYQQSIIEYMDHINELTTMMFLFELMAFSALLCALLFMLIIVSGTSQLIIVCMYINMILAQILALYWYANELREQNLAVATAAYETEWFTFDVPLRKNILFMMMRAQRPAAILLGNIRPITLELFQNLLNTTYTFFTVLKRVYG
T2 sequence (Q9VNB5 1-486 partner): T1 sequence (Q9VNB5 1-486 partner)
How it was run: as §1

[1] = ligand concentration 1 (unit not given), threshold 0.05, below shown as 0
[2] = ligand concentration 10 (unit not given), threshold 0.05, below shown as 0
[3] = ligand concentration 100 (unit not given), threshold 0.05, below shown as 0
[4] = HEK293, read-out: OR49b Average response (VUAA1-normalized)
[5] = HEK293, read-out: OR49b response (VUAA1-normalized response)
[6] = ligand concentration 1 (unit not given), 0.05 threshold, values below shown as 0
[7] = ligand concentration 10 (unit not given), 0.05 threshold, values below shown as 0
[8] = ligand concentration 100 (unit not given), 0.05 threshold, values below shown as 0
[9] = HEK293, 1 μM VOC, 50 μM VUAA1 = 1, read-out: OR49b Average response (VUAA1-normalized)
[10] = HEK293, 10 μM VOC, 50 μM VUAA1 = 1, read-out: OR49b Average response (VUAA1-normalized)
[11] = HEK293, 100 μM VOC, 50 μM VUAA1 = 1, read-out: OR49b Average response (VUAA1-normalized)
[12] = HEK293, VOC concentration 1 μM, read-out: OR49b response (VUAA1-normalized response)
[13] = HEK293, VOC concentration 10 μM, read-out: OR49b response (VUAA1-normalized response)
[14] = HEK293, VOC concentration 100 μM, read-out: OR49b response (VUAA1-normalized response)

SMILES | Average response (Drosophila OR71a; cc. 1 µM) | Average response (Drosophila OR71a; cc. 10 µM) | Average response (Drosophila OR71a; cc. 100 µM) | DF norm AVERAGE OR71a (Drosophila OR71a; [1]) | DF norm AVERAGE OR71a (Drosophila OR71a; [2]) | DF norm AVERAGE OR71a (Drosophila OR71a; [3]) | Average response (Drosophila OR49b; odorant cc. 1 µM) | Average response (Drosophila OR49b; odorant cc. 10 µM) | Average response (Drosophila OR49b; odorant cc. 100 µM) | DF norm AVERAGE OR49b (Drosophila OR49b; [1]) | DF norm AVERAGE OR49b (Drosophila OR49b; [2]) | DF norm AVERAGE OR49b (Drosophila OR49b; [3]) | activation at 1 µM (Drosophila OR71a) [%] | activation at 10 µM (Drosophila OR71a) [%] | activation at 100 µM (Drosophila OR71a) [%] | activation at 1 µM (Drosophila OR49b; [12]) [%] | activation at 10 µM (Drosophila OR49b; [13]) [%] | activation at 100 µM (Drosophila OR49b; [14]) [%] | other results
C=CC(C)(O)CCC=C(C)C (stereo not drawn) [linalool] | 0.00 | 0.0443 | 0.0124 | 0 | 0 | 0 | 0.00 | 0.00 | 0.0212 | 0 | 0 | 0 | – | – | – | – | – | – | OR71a response (VUAA1-normalized) at 1 μM (Drosophila OR71a; VOC concentration 1 μM): 0.00; OR71a response (VUAA1-normalized) at 10 μM (Drosophila OR71a; VOC concentration 10 μM): 0.00; OR71a response (VUAA1-normalized) at 100 μM (Drosophila OR71a; VOC concentration 100 μM): 0.00; OR49b response (VUAA1-normalized) at 1 μM (Drosophila OR49b; VOC concentration 1 μM): 0.00; OR49b response (VUAA1-normalized) at 10 μM (Drosophila OR49b; VOC concentration 10 μM): 0.00; OR49b response (VUAA1-normalized) at 100 μM (Drosophila OR49b; VOC concentration 100 μM): 0.00
CC/C=C/CCO [e3-hexenol] | 0.00 | 0.0432 | 0.0275 | 0 | 0 | 0 | 0.00 | 0.00 | 0.08 | 0 | 0 | 0.07888 | – | – | – | – | – | – | –
CCCCOC(C)=O [butyl acetate] | 0.00 | 0.00 | 0.0132 | 0 | 0 | 0 | – | – | – | – | – | – | 0 | 0 | 0 | – | – | – | activation at 1 µM (Drosophila OR49b; [4]): 0%; activation at 10 µM (Drosophila OR49b; [4]): 0%; activation at 1 µM (Drosophila OR49b; [5]): 0%; activation at 10 µM (Drosophila OR49b; [5]): 0%; activation at 100 µM (Drosophila OR49b; [5]): 20%
CC/C=C\CCO [E-3-hexenol] | – | – | – | – | – | – | – | – | – | – | – | – | – | – | – | – | – | – | OR71a response (VUAA1-normalized response) (Drosophila OR71a; VOC concentration 1 μM): 0.00; OR71a response (VUAA1-normalized response) (Drosophila OR71a; VOC concentration 10 μM): 0.00; OR71a response (VUAA1-normalized response) (Drosophila OR71a; VOC concentration 100 μM): 0.00; OR49b response (VUAA1-normalized response) (Drosophila OR49b; VOC concentration 1 μM): 0.00; OR49b response (VUAA1-normalized response) (Drosophila OR49b; VOC concentration 10 μM): 0.00; OR49b response (VUAA1-normalized response) (Drosophila OR49b; VOC concentration 100 μM): 0.08
CCc1ccccc1 [ethylbenzene] | 0.023 | 0.0127 | 0.0277 | 0 | 0 | 0 | 0.05 | 0.09 | 0.33 | 0.05039 | 0.08967 | 0.3273 | 0 | 0 | 0 | – | – | – | activation at 1 µM (Drosophila OR49b; [4]): 5%; activation at 10 µM (Drosophila OR49b; [4]): 9%; activation at 100 µM (Drosophila OR49b; [4]): 33%; activation at 1 µM (Drosophila OR49b; [5]): 5%; activation at 10 µM (Drosophila OR49b; [5]): 9%; activation at 100 µM (Drosophila OR49b; [5]): 33%
OCCc1ccccc1 [phenethyl alcohol] | 0.09 | 0.03 | 0.0218 | 0.08619 | 0 | 0 | 0.0257 | 0.00 | 0.09 | 0 | 0 | 0.09318 | – | – | – | – | – | – | OR71a response (VUAA1-normalized) at 1 μM (Drosophila OR71a; VOC concentration 1 μM): 0.09; OR71a response (VUAA1-normalized) at 10 μM (Drosophila OR71a; VOC concentration 10 μM): 0.00; OR71a response (VUAA1-normalized) at 100 μM (Drosophila OR71a; VOC concentration 100 μM): 0.00; OR49b response (VUAA1-normalized) at 1 μM (Drosophila OR49b; VOC concentration 1 μM): 0.00; OR49b response (VUAA1-normalized) at 10 μM (Drosophila OR49b; VOC concentration 10 μM): 0.00; OR49b response (VUAA1-normalized) at 100 μM (Drosophila OR49b; VOC concentration 100 μM): 0.09
CC/C=C\CCO [Z3-hexenol] | 0.00 | 0.0174 | 0.00 | – | – | – | 0.0226 | 0.00 | 0.00 | – | – | – | – | – | – | – | – | – | DF norm AVERAGE OR71a (Drosophila OR71a; [6]): 0; DF norm AVERAGE OR71a (Drosophila OR71a; [7]): 0; DF norm AVERAGE OR71a (Drosophila OR71a; [8]): 0; DF norm AVERAGE OR49b (Drosophila OR49b; [6]): 0; DF norm AVERAGE OR49b (Drosophila OR49b; [7]): 0; DF norm AVERAGE OR49b (Drosophila OR49b; [8]): 0
CC(=O)c1ccccc1 [acetophenone] | 0.00 | 0.00 | 0.00 | 0 | 0 | 0 | 0.00 | 0.00 | 0.13 | 0 | 0 | 0.1277 | 0 | 0 | 0 | 0 | 0 | 13 | activation at 1 µM (Drosophila OR49b; [9]): 0%; activation at 10 µM (Drosophila OR49b; [10]): 0%; activation at 100 µM (Drosophila OR49b; [11]): 13%
O=Cc1ccccc1 [benzaldehyde] | 0.03 | 0.00 | 0.00 | 0 | 0 | 0 | 0.00 | 0.0283 | 0.23 | 0 | 0 | 0.2265 | 0 | 0 | 0 | 0 | 0 | 23 | activation at 1 µM (Drosophila OR49b; [9]): 0%; activation at 10 µM (Drosophila OR49b; [10]): 3%; activation at 100 µM (Drosophila OR49b; [11]): 23%
C=CC(O)C/C=C\CC (stereo not drawn) [(5Z)-octa-1,5-dien-3-ol] | 0.00 | 0.0228 | 0.00 | – | – | – | 0.00 | 0.04 | 0.00 | – | – | – | 0 | 0 | 0 | 0 | 0 | 0 | DF norm AVERAGE OR71a (Drosophila OR71a; concentration 1, normalized fluorescence change, values below 0.05 threshold given as 0): 0; DF norm AVERAGE OR71a (Drosophila OR71a; concentration 10, normalized fluorescence change, values below 0.05 threshold given as 0): 0; DF norm AVERAGE OR71a (Drosophila OR71a; concentration 100, normalized fluorescence change, values below 0.05 threshold given as 0): 0; DF norm AVERAGE OR49b (Drosophila OR49b): 0
